From ChEMBL document CHEMBL5335785, “Structure-based virtual screening discovers potent and selective adenosine A1 receptor antagonists” (Eur J Med Chem, 2023) come the findings set out here.

Test [1] deals with T1, Adenosine receptor A1 (Homo sapiens) (UniProt P30542).
T1 sequence (whole entry): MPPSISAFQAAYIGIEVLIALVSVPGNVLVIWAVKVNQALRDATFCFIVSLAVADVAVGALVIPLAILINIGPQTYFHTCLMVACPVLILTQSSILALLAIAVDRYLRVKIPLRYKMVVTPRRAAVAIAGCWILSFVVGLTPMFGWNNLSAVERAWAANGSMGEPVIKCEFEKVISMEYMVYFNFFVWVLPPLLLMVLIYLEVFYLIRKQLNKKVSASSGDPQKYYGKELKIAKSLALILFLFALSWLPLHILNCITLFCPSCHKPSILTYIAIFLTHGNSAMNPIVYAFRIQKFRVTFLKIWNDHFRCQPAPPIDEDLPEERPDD
Particulars: Flp-In-CHO, time 60-90 min.

Test [2] deals with T2, Adenosine receptor A2a (Homo sapiens, UniProt P29274). The conditions noted are these: Flp-In-CHO, time 60-90 min.
T2 sequence (P29274 whole entry): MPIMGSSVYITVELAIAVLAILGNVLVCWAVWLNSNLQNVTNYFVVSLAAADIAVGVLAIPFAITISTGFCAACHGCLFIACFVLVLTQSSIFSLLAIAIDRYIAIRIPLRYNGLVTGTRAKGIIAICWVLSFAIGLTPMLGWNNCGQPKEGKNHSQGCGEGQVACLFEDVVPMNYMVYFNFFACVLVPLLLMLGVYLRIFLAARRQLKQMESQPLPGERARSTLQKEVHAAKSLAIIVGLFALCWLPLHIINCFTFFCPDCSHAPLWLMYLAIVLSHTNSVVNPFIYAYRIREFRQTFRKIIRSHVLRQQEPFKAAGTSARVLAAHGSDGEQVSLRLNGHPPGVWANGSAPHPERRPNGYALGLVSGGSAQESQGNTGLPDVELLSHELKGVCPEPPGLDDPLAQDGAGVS
For test [3], the target named is T3, Adenosine receptor A1 (Homo sapiens, UniProt P30542).
T3 sequence (P30542 whole entry): T1 sequence (whole entry)
As to the kind of experiment: Antagonist activity at human A1R expressed in Flp-In-CHO cells assessed as NECA-mediated reduction in forskolin-stimulated cAMP accumulation incubated for 30 to 60 mins followed by forskolin/NECA addition measured after 30 mins by LANCE cAMP assay (reference value: 8.74 +/- 0.08). The test is classed as functional, cell-based. (In general: Changes in cAMP serve as a functional read-out for many G protein-coupled receptors.)

The target in test [4] is T3, Adenosine receptor A1. Kind of test: Displacement of [3H]DPCPX from human A1R expressed in Flp-In-CHO cells incubated for 12 hrs by microbeta plate counter analysis. The test is classed as cell-based.
Test [5] deals with T2, Adenosine receptor A2a. Kind of test: Antagonist activity at human A2AR expressed in Flp-In-CHO cells assessed as NECA-mediated cAMP accumulation incubated for 30 to 60 mins followed by NECA addition measured after 30 mins by LANCE cAMP assay (reference value: 8.38 +/- 0.03). The test is classed as functional, cell-based.

Each structure is given as a SMILES string. Bounds are passed on as bounds.

As to `Cc1c(C(=O)Nc2nc3c(s2)Cc2ccccc2-3)ccc2cncn12`, the pKb in test [1] and in test [2] was less than 5.5 in each case.
In the case of `O=C(Nc1nc(C2CC2)cs1)C1COc2ccccc2C1` (stereo unspecified), the EC50 (as a rule, the concentration that produces a half-maximal response) in test [3] is 3.24 nM.
Consider `CC1(C(=O)Nc2nc3c(s2)Cc2ccccc2-3)CCCC1`, for which the pKb (in general, −log10 of the Kb, conventionally taken in molar units) in test [1] (filed as antagonist) was determined as 7.86; in test [2] (filed as antagonist), 7.4.
With `O=C(Nc1nc2c(s1)Cc1ccccc1-2)C12CC3CC(CC1C3)C2`, the Ki in test [4] (read-out: Ki) is 72 nM. The pKb in test [1] (filed as antagonist) came out at 7.57; in test [2] (filed as antagonist) it was 6.3.
In the case of `CCC1CCC(C(=O)Nc2nc3c(s2)Cc2ccccc2-3)CC1` (stereo unspecified), the pKb in test [1] and in test [2] was less than 5.5 throughout.
Turning to `CC1(CNc2ncc(-c3ccncc3)c(-c3cccs3)n2)OCCO1`, the pKb in test [1] (filed as antagonist) is 6.38; in test [2] it was less than 5.5.
Regarding `c1csc(-c2nc(NC3CCC4(CC3)OCCO4)ncc2-c2ccncc2)c1`, the pKb in test [1] (filed as antagonist) came to 7.07; in test [2] (filed as antagonist), 6.53.
For the molecule `CCOc1nc(NC(CO)c2ccco2)ncc1Br` (stereo unspecified), the Ki in test [4] (read-out: pKi (converted)) is 2450 nM. In addition, the EC50 in test [3] is 14.8 nM.
`O=C(Nc1noc(-c2ccccc2)n1)c1cccc(Cl)c1`: the EC50 in test [3] was 2.82 nM; in test [5], 10.5 nM.
Take `CC1(C(=O)Nc2nc3c(s2)Cc2ccccc2-3)CCC(=O)CC1`: the pKb in test [1] (filed as antagonist) was found to be 7.85; in test [2] (filed as antagonist), 7.25.
`O=C(Nc1nc2ccccc2s1)N(CCO)C1CC1`: the figures for the EC50 in test [3] and in test [5] were 3.63 nM and 6.03 nM, respectively.
The molecule `Cc1cccnc1C(=O)Nc1nc2c(s1)Cc1ccccc1-2` returned a pKb in test [1] of less than 5.5.
For the molecule `COC1(OC)CC(C)(C(=O)Nc2nc3c(s2)Cc2ccccc2-3)C1`, the pKb came to 6.7 in test [1] (filed as antagonist) and 7.25 in test [2] (filed as antagonist).
Take `O=C(CC1CCCC1)N1CCc2c(nc(N3CCCC3)[nH]c2=O)C1`: the EC50 in test [5] was 4.47 nM.
In the case of `O=C(Nc1nc2c(s1)Cc1ccccc1-2)c1ncn2cc(Cl)ccc12`, the pKb in test [1] was less than 5.5.
`Cc1ccc2nc(C(=O)Nc3cnc4n3CCCC4)cn2c1`: the EC50 in test [5] is 4.57 nM.
For the molecule `Cc1coc(C(=O)Nc2nc3c(s2)Cc2ccccc2-3)c1C`, the pKb in test [1] is less than 5.5.
As to `Cn1c(=O)c2[nH]c(N(CCO)CCO)nc2n(C)c1=O`, the Ki in test [4] (read-out: pKi (converted)) was 2820 nM. The EC50 in test [3] is 17 nM; in test [5], 6.92 nM.
Regarding `c1ccc(CNc2nc(N3CCCCC3)c3nccnc3n2)nc1`, in test [3], the EC50 was 2.51 nM.
Turning to `O=C(Nc1nc2c(s1)Cc1ccccc1-2)C1CCCCCC1`, the pKb stood at 7.29 in test [1] (filed as antagonist) and 6.87 in test [2] (filed as antagonist).
Turning to `COc1ccc(C(=O)Nc2nc(C)c3cc4c(cc3n2)OCO4)cc1`, the EC50 in test [3] was 1.91 nM.
Regarding `O=C(Nc1nc2c(s1)Cc1ccccc1-2)C1CCCCC1`, the pKb in test [1] (filed as antagonist) came to 7.24; in test [2] (filed as antagonist) it was 7.
For `CC(C)(CNc1ncc(-c2ccncc2)c(-c2cccs2)n1)C1CCC1`, the pKb in test [1] (filed as antagonist) was determined as 7.15; in test [2] (filed as antagonist), 6.09.
Turning to `CC(=O)NC(CC(=O)Nc1nc(C(C)=O)cs1)c1ccc(C)cc1` (stereo unspecified), in test [3], the EC50 is 2.57 nM.
Regarding `Cc1cccc(C(=O)Nc2nc3c(s2)Cc2ccccc2-3)c1C`, the pKb was 6.67 in test [1] (filed as antagonist) and less than 5.5 in test [2].
In the case of `COCC(O)CNc1ncc(C)c(-c2ncnn2C)n1` (stereo unspecified), the EC50 in test [3] is 2.34 nM; in test [5], 4.57 nM.
In the case of `C=C1CCC(C(=O)Nc2nc3c(s2)Cc2ccccc2-3)CC1`, the pKb in test [1] (filed as antagonist) was found to be 7.7; in test [2] (filed as antagonist), 7.03.
With `CC(Sc1nnc(C(C)C)[nH]1)C(=O)c1ccccc1` (stereo unspecified), the EC50 in test [3] is 3.31 nM.
Consider `c1csc(-c2nc(NC3CCCCCC3)ncc2-c2ccncc2)c1`, for which the figures for the pKb in test [1] (filed as antagonist) and in test [2] (filed as antagonist) were 8.1 and 6.79, respectively.
`CC(C)N1CC(C(=O)Nc2nc3ccccc3[nH]2)CC1=O` (stereo unspecified): the EC50 in test [5] was 20.4 nM.
On to `CC1(CNc2ncc(-c3ccncc3)c(-c3cccs3)n2)COC1`, for which the pKb in test [1] and in test [2] was less than 5.5 throughout.
Turning to `Cc1nnsc1C(=O)Nc1nc2c(s1)Cc1ccccc1-2`, the EC50 in test [5] is 63.1 nM.
Take `CC(=O)N1CCC(Nc2ncc(-c3ccncc3)c(-c3cccs3)n2)CC1`: the results for the pKb in test [1] (filed as antagonist) and in test [2] (filed as antagonist) were 7.82 and 6.57, respectively.
